Data from PubChem BioAssay (NCI).
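Tested at 5 concentrations; 48 h exposure; 96-well plates; endpoints linearly interpolated, else capped at highest concentration. The concentration for 50% growth inhibition is given as GI50. TGI is the concentration that stops growth completely.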 Calls of active or inactive are those of the source. No stated cut-off is given here; in the data, active means GI50 below about 0.43 µM; inactive means the rest.

Assays:
Experiment in all cases: inhibition of tumour cell growth, NCI panel, 48 h
[1] = system: IGROV1 ovarian
[2] = system: MDA-MB-435
[3] = system: UACC-62 melanoma
[4] = system: RXF 393 renal
[5] = system: MDA-N
[6] = system: HS 578T breast
[7] = system: U251 CNS
[8] = system: DMS 114 small cell lung
[9] = system: T-47D breast
[10] = system: CAKI-1 renal
[11] = system: SW-620 colon
[12] = system: RXF-631 renal
[13] = system: XF 498 CNS
[14] = system: SK-MEL-5 melanoma
[15] = system: CCRF-CEM leukemia
[16] = system: RPMI-8226 leukemia
[17] = system: K-562 leukemia
[18] = system: OVCAR-5 ovarian

C[CH2][Sn]([CH2]C)([O]C(=O)c1ccccc1F)[O]C(=O)c1ccccc1F
GI50 [1]: > 100 µM | TGI [1]: > 100 µM | GI50 [2]: > 100 µM | TGI [2]: > 100 µM | GI50 [3]: 27.2 µM | TGI [3]: 52.4 µM | GI50 [4]: 15.4 µM | TGI [4]: 35.4 µM | GI50 [5]: > 100 µM | TGI [5]: > 100 µM | GI50 [6]: 42.2 µM | TGI [6]: > 100 µM | GI50 [7]: 47.4 µM | TGI [7]: > 85.1 µM | GI50 [8]: 20.4 µM | TGI [8]: 43.1 µM | GI50 [9]: 11.8 µM | TGI [9]: 24.4 µM | GI50 [10]: 11.9 µM | TGI [10]: 19.6 µM | GI50 [11]: 28.3 µM | TGI [11]: 73.7 µM | GI50 [12]: 18.6 µM | TGI [12]: 34.1 µM | GI50 [13]: 15.9 µM | TGI [13]: 30.6 µM | GI50 [14]: 50.2 µM | TGI [14]: > 100 µM | GI50 [15]: 8.77 µM | TGI [15]: 35.6 µM | GI50 [16]: 17.2 µM | TGI [16]: 45.7 µM | GI50 [17]: 16.2 µM | TGI [17]: 55.1 µM | GI50 [18]: > 97.4 µM | TGI [18]: > 100 µM

C=CC(=O)C#CC#CC/C=C\CCCCCCC
TGI [1]: > 6.51 µM | outcome [1]: inactive | TGI [2]: > 20.6 µM | outcome [2]: inactive | TGI [3]: > 20.6 µM | outcome [3]: inactive | TGI [4]: > 19.5 µM | outcome [4]: inactive | outcome [5]: inactive | TGI [6]: > 20.6 µM | outcome [6]: inactive | TGI [7]: > 20.6 µM | outcome [7]: inactive | TGI [8]: > 20.6 µM | TGI [9]: > 20.6 µM | outcome [9]: inactive | TGI [10]: > 20.6 µM | outcome [10]: inactive | TGI [11]: > 20.6 µM | outcome [11]: inactive | TGI [14]: > 20.6 µM | outcome [14]: inactive | TGI [15]: > 17.3 µM | outcome [15]: inactive | TGI [16]: > 18.6 µM | outcome [16]: inactive | TGI [17]: > 20.6 µM | outcome [17]: inactive | TGI [18]: > 20.6 µM | outcome [18]: inactive
